Here are results for 1 compound from patent publication US20220323761A1, “METHOD FOR INDUCING HIBERNATION-LIKE STATE AND DEVICE SAME” (University of Tsukuba, priority 2019, published 2022).

The test system of assay [1] is hM3Dq-mCherry expressing neurons. Briefly: Electrophysiological study of hypothalamus slices, current-clamp firing. The assay is classed as cell-based. The conditions noted are these: bath-application, CNO 1 μM, slices of Q-hM3D mice. Here is the method: The mice were decapitated under deep anesthesia using isoflurane (Pfizer). The brains were extracted and cooled in an ice-cold cutting solution containing the following (mM): 125 mM choline chloride, 25 mM NaHCO3, 10 mM D(+)-glucose, 7 mM MgCl2, 2.5 mM KCl, 1.25 mM NaH2PO4, and 0.5 mM CaCl2) bubbled with O2 (95%) and CO2 (5%). Horizontal brain slices (thickness of 250 μm) including the hypothalamus were prepared using a vibratome (VT1200S, Leica) and were maintained at room temperature for one hour in artificial CSF (ACSF) containing the following (mM): 125 mM NaCl, 26 mM NaHCO3, 10 mM D(+)-glucose, 2.5 mM KCl, 2 mM CaCl2), and 1 mM MgSO4 bubbled with O2 (95%) and CO2 (5%). The electrodes (5 to 8 MΩ) were filled with an internal solution containing the following (mM): 125 mM K-gluconate, 10 mM HEPES, 10 mM phosphocreatine, 0.05 mM tolbutamide, 4 mM NaCl, 4 mM ATP, 2 mM MgCl2, 0.4 mM GTP, and 0.2 mM EGTA, with a pH of 7.3 and adjusted with KOH). Firing of hM3Dq-mCherry expressing neurons was recorded in a current-clamp mode at a temperature of 30° C. CNO (1 μM) was bath-applied, and the effect was examined. The membrane voltage and data acquisition were controlled using a combination of the MultiClamp 700B amplifier, the Digidata 1440A A/D converter and Clampex 10.3 software (Molecular Devices). […]

For assay [2], the system named is Q-neurons in the AVPe, MPA and Pe. Briefly: Fos immunostaining of brain sections of Q-hM3D mice after CNO IP. The assay is classed as in vivo. The conditions noted are these: 90 minutes after CNO IP. Here is the method: Each mouse was deeply anesthetized with isoflurane, transcardially perfused with 10% sucrose in water, and then perfused with ice-cooled 4% paraformaldehyde (4% PFA) in a 0.1 M phosphate buffer having a pH of 7.4, and the brain was removed. After being left in the 4% PFA overnight at 4° C., the brain was fixed, incubated overnight at 4° C. in a 0.1 M phosphate buffered saline (PBS) having a pH of 7.4, in 30% sucrose, immersed in a Tissuue-Tek O.C.T. compound (Sakura) in a cryomold, and frozen at −80° C. until sectioned. With the use of a cryostat (CM1860, Leica), the brain was sliced into coronal sections in four equal series every 50 μm, collected in a 6-well plate filled with ice-cooled PBS, and washed three times with PBS at room temperature (RT). Unless otherwise specified, the following incubation process was carried out while gently shaking on an orbital shaker. […]
The primary antibodies used in this research were rabbit anti-cFos (1:4000, ABE457, Millipore), goat anti-mCherry (1:15000, AB0040-200, SICGEN), rat anti-GFP (1:5000, 04404-84, NACALAI TESQUE), mouse anti-TH (1:1000, sc-25269, Santa Cruz Biotechnology), mouse anti-orexin A (1:200, sc-80263, Santa Cruz Biotechnology), and rabbit anti-MCH (1:2000, M8440, SIGMA). […] Brain regions were determined using a mouse brain map from Paxinos and Franklin^36.

In the case of `C[N+]1([O-])CCN(C2=Nc3cc(Cl)ccc3Nc3ccccc32)CC1` [CNO, clozapine N-oxide], in assay [1], the “excitation of mCherry-positive neurons” value is listed as “strongly excited”. In addition, the “in vivo excitation of neurons (mCherry and Fos double positive)” value in assay [2] is “confirmed”.
